Test results as given in US10828301B2, “2,4-pyrimidinediamine compounds and their uses” (Rigel Pharmaceuticals, Inc, priority 2002, dated 2020).
Like-named read-outs stand apart in the source and are kept apart here.

Tests used:
Jurkat cells = assay: Jurkat toxicity: Cell Titer Glo assay; type: cell-based; settings: Homo sapiens, 18 hours
Method: Seed 50 μl cells (1×10^6/ml) into each well containing 50 μl compound. […] Shake plates for 1 minute to mix cells and compound. Incubate plates at 37° C. […] Next day, harvest 50 μl cells from each well, add to 50 μl Cell Titer Glo reagent ([…]). Shake plates for 1 minute. Read on luminometer.

[1] = test system: cultured human mast cells (CHMC); assay: CHMC high cell density IgE activation: degranulation (hexos, tryptase, histamine), leukotriene (LTC4) and cytokine (TNFalpha, IL-13) assays; type: cell-based; settings: anti-IgE activation
Method: After sensitizing, cells are counted, pelleted (1000 rpm, 5-10 minutes), and resuspended at 1-2×10^6 cells/ml in MT buffer. Add 100 ul of cell suspension to each well and 100 ul of compound dilutions. The final vehicle concentration is 0.5% DMSO. Incubate at 37° C. (5% CO2) for 1 hour. After 1 hour of compound treatment, stimulate cells with 6× anti-IgE. Mix wells with the cells and allow plates to incubate at 37° C. (5% CO2) for one hour. After 1 hour incubation, pellet cells (10 minutes, 1000 RPM) and collect 200 ul per well of the supernatant, being careful not to disturb pellet. Place the supernatant plate on ice. During the 7-hour step (see next) perform tryptase assay on supernatant that had been diluted 1:500. Resuspend cell pellet in 240 ul of CM media containing 0.5% DMSO and corresponding concentration of compound. Incubate CHMC cells for 7 hours at 37° C. (5% CO2). After incubation, pellet cells (1000 RPM, 10 minutes) and collect 225 ul per well and place in −80° C. until ready to perform ELISAS. ELISAS are performed on appropriately diluted samples (determined empirically for each donor cell population so that the sample measurement falls within the standard curve) following the supplier's instructions.

[2] = test system: cultured human mast cells (CHMC); assay: CHMC low cell density ionomycin activation: tryptase assay; type: cell-based; settings: Homo sapiens, Mast cell, Low Density CHMC, ionomycin activation, tryptase readout; read-out: CHMC Ionomycin Tryptase
[3] = test system: cultured human mast cells (CHMC); assay: CHMC low cell density IgE activation: tryptase and LTC4 assays; type: cell-based; settings: Homo sapiens, Mast cell, Low Density CHMC, anti-IgE activation
Procedure, shortened: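 Degranulation measured after 30 min anti-IgE challenge at 37° C of CHMC plated at 1000-1500 cells/well following 1 h preincubation. Readouts: LTC4 by ELISA on donor-specific diluted supernatants, and tryptase activity from a 30 min room-temperature substrate reaction.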

[4] = test system: IgE-induced degranulation of tissue mast cells; assay: Mouse model of passive cutaneous anaphylaxis (PCA); type: in vivo; settings: for inhibition of the PCA response: oral route in a PEG-based formulation, data not shown
Method: This model provides a direct measure of IgE-induced degranulation of tissue mast cells. In this model, IgE primed animals are exposed to an allergen challenge, and the change in permeability of dermal vasculature that results from histamine release from mast cells is measured by change in the amount of dye leakage into surrounding tissue. Inhibition of mediator release by compounds that modulate mast cell degranulation is easily measured by extracting the dye from the tissue.
In the PCA assay mice are passively sensitized by intradermal injection with anti-dinitrophenol (DNP) IgE antibodies (Day −1). At predetermined times animals are treated with the test agent (Day 0). The modulatory effect of the agent on cutaneous mast cell degranulation is measured following intravenous injection of DNP conjugated to human serum albumin (HSA-DNP), together with Evans blue dye. The resulting cross-linking of the IgE receptor and subsequent mast cell degranulation-induced increase in vascular permeability is determined by measuring the amount of dye extravasation into the tissue. Dye is extracted from the tissue by formamide, and the absorbance of this extract is read at 620 nm.

[5] = test system: basophils in whole human peripheral blood; assay: Basophil ionomycin activation: histamine release assay; type: cell-based
Method: Assays for ionomycin-induced basophil cell degranulation were carried out as described for the Basophil IgE or Dustmite Activation Assay (Section 6.4.6, supra), with the exception that following incubation with compound, cells were stimulated with 20 μl of 2 μM ionomycin.

[6] = test system: bone marrow derived mast cells (BMMC); assay: BMMC high cell density IgE activation: degranulation (hexosiminidase, histamine), leukotriene (LTC4) and cytokine (TNFalpha, IL-6) assays; type: cell-based; settings: Mus musculus, anti-IgE activation
[7] = Mouse model of allergic asthma (ovalbumin); type: in vivo
Excerpt: Mice are sensitized to ovalbumin (chicken protein) in the presence of an adjuvant (Alum) by the intraperitoneal route on day 0 and day 7. One week later, mice are challenged intranasally with ovalbumin on Days 14, 15 and 16 (more stringent model) or on Day 14 (less stringent model). This sensitization and challenge regimen leads to airway hyperresponsiveness and inflammation in the lungs, which are two dominant characteristics of human allergic asthma. In the mouse model, the in vivo airway responses are measured using a whole body plethysmograph which determines the PENH (enhanced Pause, Buxco Electronics). The PENH is a dimensionless value comprised of the peak inspiratory flow (PIF), peak expiratory flow (PEF), time of inspiration, time of expiration and relaxation time, and is considered a validated parameter of airway responsiveness. Responses to allergen challenge (OVA) are compared with animals challenged with saline only. Twenty-four hours after challenge, mice are exposed to increasing doses of methacholine (muscarinic receptor agonist) which results in smooth muscle contraction. […] In addition, a cellular infiltrate in the airway is observed in ovalbumin challenged mice when compared with the saline challenged mice. This cellular infiltrate is mainly characterized by eosinophils, but a smaller influx of neutrophils and mononuclear cells is also present.
The use of this model for the evaluation of small molecule inhibitors of mast cell degranulation has been validated is several ways. First, using mast cell deficient mice (W/W^v) it has been shown that the ovalbumin-induced responses are dependent upon the presence of mast cells.

[8] = target: FcγRI receptor-mediated degranulation; assay: FcγRI-mediated degranulation (activation with anti-human IgG Fab fragment); settings: cells not primed with IgE, activated with rabbit anti-human IgG Fab fragment
[9] = LTC4, read-out: CHMC high density LTC4
[10] = TNF-alpha, read-out: CHMC high density TNF-alpha
[11] = hexosaminidase release, read-out: CHMC high density hexos
[12] = histamine release, read-out: CHMC high density histamine
[13] = tryptase release, read-out: CHMC high density tryptase
[14] = tryptase readout, read-out: CHMC anti-IgE Tryptase
[15] = IL-6 release, read-out: BMMC anti-IgE IL-6 IC50
[16] = LTC4 release, read-out: BMMC anti-IgE LTC4 IC50
[17] = TNF-alpha release, read-out: BMMC anti-IgE TNF-alpha IC50
[18] = hexosaminidase release, read-out: BMMC anti-IgE hexos IC50
[19] = histamine release, read-out: BMMC anti-IgE histamine IC50

SMILES: CNC(=O)c1cc2cc(Nc3ncc(F)c(Nc4cccc(O)c4)n3)ccc2o1 [Compound R926493, 5-Fluoro-N4-(3-hydroxyphenyl)-N2-[2-(N-methylamino)carbonylbenzofuran-5-yl]-2,4-pyrimidinediamine]
- IC50 (Jurkat cells): > 4330 nM
- IC50 [1, 9]: 474 nM
- IC50 [1, 10]: > 2000 nM
- IC50 [1, 11]: 889 nM
- IC50 [1, 12]: 1320 nM
- IC50 [1, 13]: 1090 nM
- IC50 [2]: 9180 nM
- IC50 ([3]; LTC4 readout, read-out: CHMC anti-IgE LTC4): 78 nM
- IC50 [3, 14]: 250 nM

SMILES: CN(C)CCOC(c1ccccc1)c1ccccc1 [diphenhydramine, reference compound]
- inhibition of the PCA response / FcεR-mediated vascular leakage (in words) ([4]; mouse, in vivo): inhibit the PCA response

SMILES: CNC(=O)COc1cccc(Nc2ncc(F)c(Nc3cccc(O)c3)n2)c1 [Compound R926508, 5-Fluoro-N4-(3-hydroxyphenyl)-N2-[3-(N-methylamino)carbonylmethyleneoxyphenyl]-2,4-pyrimidinediamine]
- IC50 [5]: > 10000 nM
- inhibition of the PCA response [4]: able to inhibit the PCA response

SMILES: CNC(=O)COc1cccc(Nc2ncc(F)c(Nc3ccc4c(c3)OCCO4)n2)c1 [Compound R926495, N4-(3,4-Ethylenedioxyphenyl)-5-fluoro-N2-[3-(N-methylamino)carbonylmethyleneoxyphenyl]-2,4-pyrimidinediamine]
- IC50 [5]: > 10000 nM
- inhibition of the PCA response [4]: able to inhibit the PCA response

SMILES: NC12OCCON1C(Nc1ccc3oc(CO)cc3c1)=NC=C2F (centres unmarked) [Compound R926696, N4-(3,4-Ethylenedioxy)-5-fluoro-N2-[2-(hydroxymethyl)benzofuran-5-yl]-2,4-pyrimidinediamine]
- IC50 (Jurkat cells): > 5000 nM
- IC50 ([1]; IL-13, read-out: CHMC high density IL-13): 1770 nM
- IC50 [1, 9]: < 1100 nM
- IC50 [1, 10]: < 1100 nM
- IC50 [1, 11]: < 1100 nM
- IC50 [1, 12]: < 1100 nM
- IC50 [1, 13]: < 1100 nM
- IC50 [2]: > 10000 nM
- IC50 [3, 14]: 309 nM

SMILES: OCCOc1cccc(Nc2ncc(F)c(Nc3ccc4c(c3)OCCO4)n2)c1 [Compound R935154, N4-(3,4-Ethylenedioxyphenyl)-5-fluoro-N2-[3-(2-hydroxyethoxy)phenyl]-2,4-pyrimidinediamine]
- IC50 (Jurkat cells): > 4330 nM
- IC50 [2]: > 10000 nM
- IC50 [3, 14]: 127 nM
- IC50 [6, 15]: 41 nM
- IC50 [6, 16]: 547 nM
- IC50 [6, 17]: 131 nM
- IC50 [6, 18]: 104 nM
- IC50 [6, 19]: 85 nM

SMILES: Nc1cccc(Nc2ncc(F)c(Nc3ccc4c(c3)OCCO4)n2)c1 [Compound R950207, N2-(3-Aminophenyl)-N4-(3,4-ethylenedioxyphenyl)-5-fluoro-2,4-pyrimidinediamine]
- IC50 (Jurkat cells): > 4330 nM
- IC50 [2]: > 10000 nM
- IC50 [3, 14]: 164 nM
- IC50 [6, 15]: < 220 nM
- IC50 [6, 16]: 288 nM
- IC50 [6, 17]: < 220 nM
- IC50 [6, 18]: < 220 nM
- IC50 [6, 19]: < 220 nM

SMILES: O=C(O)c1cc(=O)c2c(OCC(O)COc3cccc4oc(C(=O)O)cc(=O)c34)cccc2o1 [Cromolyn, reference compound]
- ovalbumin-induced airway hyperresponsiveness and inflammation ([7]; model validation, data not shown): able to block the ovalbumin-induced airway hyperresponsiveness and inflammation

SMILES: CNC(=O)COc1cccc(Nc2ncc(F)c(Nc3ccc(OC(F)(F)F)c(Cl)c3)n2)c1 [Compound R920410, N4-(3-Chloro-4-trifluoromethoxyphenyl)-5-fluoro-N2-[3-(N-methylamino)carbonylmethyleneoxyphenyl]-2,4-pyrimidinediamine]
- inhibition of FcγRI-mediated degranulation [8]: inhibit FcγRI-mediated degranulation

SMILES: CNC(=O)COc1cccc(Nc2ncc(F)c(Nc3ccc4c(n3)NC(=O)CO4)n2)c1 [Compound R921304, 5-Fluoro-N2-(3-methylaminocarbonylmethyleneoxyphenyl)-N4-[2H-pyrido[3,2-b]-1,4-oxazin-3(4H)-one-6-yl]-2,4-pyrimidinediamine]
- ovalbumin-induced airway hyperresponsiveness to methacholine ([7]; intranasal, 10 consecutive days (Day 7 through Day 16), 20 mg/kg): able to inhibit the ovalbumin-induced airway hyperresponsiveness to methacholine
- airway responses in a mouse model of allergic asthma ([7]; summary): efficacious in inhibiting the airway responses

SMILES: CC(C)Oc1ccc(Nc2nc(Nc3cccc(OCCO)c3)ncc2F)cc1 [Compound R935156, 5-Fluoro-N2-[3-(2-hydroxyethoxy)phenyl]-N4-(4-isopropoxyphenyl)-2,4-pyrimidinediamine]
- IC50 (Jurkat cells): 4050 nM
- IC50 [2]: > 10000 nM
- IC50 [3, 14]: 149 nM
- IC50 [6, 15]: < 220 nM
- IC50 [6, 16]: 433 nM
- IC50 [6, 17]: 220 nM
- IC50 [6, 18]: < 220 nM
- IC50 [6, 19]: < 220 nM

SMILES: Oc1cccc(Nc2nc(Nc3ccc4c(c3)N=CCO4)ncc2F)c1 [Compound R909241, N2-(1,4-Benzoxazin-6-yl)-5-fluoro-N4-(3-hydroxyphenyl)-2,4-pyrimidinediamine]
- IC50 (Jurkat cells): 3740 nM
- IC50 [2]: > 10000 nM
- IC50 [3, 14]: 181 nM
- IC50 [6, 15]: < 220 nM
- IC50 [6, 16]: 1020 nM
- IC50 [6, 17]: 253 nM
- IC50 [6, 18]: < 220 nM
- IC50 [6, 19]: < 220 nM

SMILES: O=C1Nc2cc(Nc3ncc(F)c(Nc4ccc5c(c4)NC(=O)C(F)(F)O5)n3)ccc2OC1(F)F [Compound R940352, N2,N4-[(2,2-Difluoro-4H-benzo[1,4]oxazin-3-one)-6-yl]-5-fluoro-2,4-pyrimidinediamine]
- inhibition of FcγRI-mediated degranulation [8]: inhibit FcγRI-mediated degranulation

SMILES: CNC(=O)COc1cccc(Nc2ncc(F)c(Nc3ccc4c(n3)NC(=O)C(C)(C)O4)n2)c1 [Compound R940347, N4-[(2,2-Dimethyl-4H-5-pyrido[1,4]oxazin-3-one)-6-yl]-5-fluoro-N2-[3-(methylaminocarbonylmethyleneoxy)phenyl]-2,4-pyrimidinediamine]
- inhibition of FcγRI-mediated degranulation [8]: inhibit FcγRI-mediated degranulation

SMILES: CNC(=O)COc1cccc(Nc2ncc(F)c(Nc3ccc4cc[nH]c4c3)n2)c1 [Compound R926745, 5-Fluoro-N4-[(1H)-indol-6-yl]-N2-[3-(N-methylamino)carbonylmethyleneoxyphenyl]-2,4-pyrimidinediamine]
- inhibition of the PCA response [4]: able to inhibit the PCA response
